Source: ChEMBL document CHEMBL4024706 (Eur J Med Chem, 2017)

Legend:
[1] = target: Serine/threonine-protein kinase 36 (Homo sapiens) (UniProt Q9NRP7); test: Inhibition of wild-type human partial length STK36 (M1 to T271 residues) expressed in bacterial expression system assessed as residual activity at 1 uM by Kinomescan method relative to control
[2] = target: Mitogen-activated protein kinase kinase kinase 10 (Homo sapiens) (UniProt Q02779); test: Inhibition of wild-type human partial length MLK2 (V52 to W380 residues) expressed in bacterial expression system assessed as residual activity at 1 uM by Kinomescan method relative to control
[3] = target: Activin receptor type-1-like (Homo sapiens) (UniProt P37023); test: Inhibition of wild-type human ACVRL1 (L164 to Q503 residues) expressed in bacterial expression system assessed as residual activity at 1 uM by Kinomescan method relative to control
[4] = test system: Receptor-type tyrosine-protein kinase FLT3 (Homo sapiens), P36888 [D835Y]; test: Inhibition of human partial length FLT3 D835Y mutant (Q580 to Y969 residues) expressed in bacterial expression system assessed as residual activity at 1 uM by Kinomescan method relative to control
[5] = target: Ephrin type-B receptor 6 (Homo sapiens) (UniProt O15197); test: Inhibition of wild-type human partial length EPHB6 (Q634 to P948 residues) expressed in mammalian expression system assessed as residual activity at 1 uM by Kinomescan method relative to control
[6] = target: Insulin receptor (Homo sapiens) (UniProt P06213); test: Inhibition of wild-type human partial length INSR (P997 to E1318 residues) expressed in mammalian expression system assessed as residual activity at 1 uM by Kinomescan method relative to control
[7] = test system: Mast/stem cell growth factor receptor Kit (Homo sapiens), P10721 [D816H]; test: Inhibition of human partial length KIT D816H mutant (I571 to D952 residues) expressed in mammalian expression system assessed as residual activity at 1 uM by Kinomescan method relative to control
[8] = target: Death-associated protein kinase 2 (Homo sapiens) (UniProt Q9UIK4); test: Inhibition of wild-type human full length DAPK2 (M1 to S370 residues) expressed in bacterial expression system assessed as residual activity at 1 uM by Kinomescan method relative to control
[9] = target: Calcium/calmodulin-dependent protein kinase type 1B (Homo sapiens) (UniProt Q6P2M8); test: Inhibition of wild-type human partial length CAMK1B (W9 to A311 residues) expressed in mammalian expression system assessed as residual activity at 1 uM by Kinomescan method relative to control
[10] = target: Serine/threonine-protein kinase pim-1 (Homo sapiens) (UniProt P11309); test: Inhibition of wild-type human partial length PIM1 (A15 to K313 residues) expressed in bacterial expression system assessed as residual activity at 1 uM by Kinomescan method relative to control
[11] = target: Proto-oncogene tyrosine-protein kinase ROS (Homo sapiens) (UniProt P08922); test: Inhibition of wild-type human partial length ROS1 (A1921 to N2240 residues) expressed in bacterial expression system assessed as residual activity at 1 uM by Kinomescan method relative to control
[12] = target: Calcium-dependent protein kinase 1 (Plasmodium falciparum) (UniProt P62344); test: Inhibition of wild-type Plasmodium falciparum isolate 3D7 full length CDPK1 (M1 to S524 residues) expressed in mammalian expression system assessed as residual activity at 1 uM by Kinomescan method relative to control
[13] = target: Mitogen-activated protein kinase kinase kinase kinase 2 (Homo sapiens) (UniProt Q12851); test: Inhibition of wild-type human partial length MAP4K2 (M1 to G318 residues) expressed in mammalian expression system assessed as residual activity at 1 uM by Kinomescan method relative to control
[14] = target: Serine/threonine-protein kinase 24 (Homo sapiens) (UniProt Q9Y6E0); test: Inhibition of wild-type human partial length MST3 (A30 to S311 residues) expressed in bacterial expression system assessed as residual activity at 1 uM by Kinomescan method relative to control
[15] = target: Mast/stem cell growth factor receptor Kit (Homo sapiens) (UniProt P10721); test: Inhibition of wild-type human partial length autoinhibited KIT (Y545 to D952 residues) expressed in mammalian expression system assessed as residual activity at 1 uM by Kinomescan method relative to control
[16] = target: Dual specificity mitogen-activated protein kinase kinase 5 (Homo sapiens) (UniProt Q13163); test: Inhibition of wild-type human partial length MEK5 (L98 to P448 residues) expressed in mammalian expression system assessed as residual activity at 1 uM by Kinomescan method relative to control
[17] = target: Testis-specific serine/threonine-protein kinase 1 (Homo sapiens) (UniProt Q9BXA7); test: Inhibition of wild-type human full length TSSK1B (M1 to Q367 residues) expressed in bacterial expression system assessed as residual activity at 1 uM by Kinomescan method relative to control
[18] = target: Serine/threonine-protein kinase PAK 3 (Homo sapiens) (UniProt O75914); test: Inhibition of wild-type human full length PAK3 (M1 to R544 residues) expressed in bacterial expression system assessed as residual activity at 1 uM by Kinomescan method relative to control
[19] = target: Homeodomain-interacting protein kinase 2 (Homo sapiens) (UniProt Q9H2X6); test: Inhibition of wild-type human partial length HIPK2 (M153 to S564 residues) expressed in mammalian expression system assessed as residual activity at 1 uM by Kinomescan method relative to control
[20] = target: Inhibitor of nuclear factor kappa-B kinase subunit alpha (Homo sapiens) (UniProt O15111); test: Inhibition of wild-type human full length IKK-alpha (M1 to E745 residues) expressed in mammalian expression system assessed as residual activity at 1 uM by Kinomescan method relative to control
[21] = target: Receptor tyrosine-protein kinase erbB-3 (Homo sapiens) (UniProt P21860); test: Inhibition of wild-type human partial length ERBB3 (G684 to A987 residues) expressed in mammalian expression system assessed as residual activity at 1 uM by Kinomescan method relative to control
[22] = target: Myosin light chain kinase family member 4 (Homo sapiens) (UniProt Q86YV6); test: Inhibition of wild-type human partial length MYLK4 (V79 to S380 residues) expressed in bacterial expression system assessed as residual activity at 1 uM by Kinomescan method relative to control
[23] = target: Dual specificity testis-specific protein kinase 1 (Homo sapiens) (UniProt Q15569); test: Inhibition of wild-type human […] length TESK1 (R37 to S626 residues) expressed in bacterial expression system assessed as residual activity at 1 uM by Kinomescan method relative to control
[24] = target: LIM domain kinase 1 (Homo sapiens) (UniProt P53667); test: Inhibition of wild-type human full length LIMK1 (M1 to D647 residues) expressed in bacterial expression system assessed as residual activity at 1 uM by Kinomescan method relative to control
U-937 = test: Growth inhibition of human U937 cells; type: functional; settings: Homo sapiens, U-937
[25] = target: G protein-coupled receptor kinase 4 (Homo sapiens) (UniProt P32298); test: Inhibition of wild-type human full length GRK4 (M1 to C578 residues) expressed in bacterial expression system assessed as residual activity at 1 uM by Kinomescan method relative to control

`C=CC(=O)Nc1cc(Nc2cc(-c3cccc(NC(=O)c4ccc(C(C)(C)C)cc4)c3C)cn(C)c2=O)ccc1C(=O)N1CCOCC1` was tested, and the Activity [1] was 93%, the Activity [2] was 100% and the Activity [3] was 89%. For the same molecule, the Activity [4] was 97%, the Activity [5] was 100% and the Activity [6] was 100%. It also gave an Activity [7] of 94%, an Activity [8] of 99% and an Activity [9] of 85%. For the same molecule, the Activity [10] was 100%, the Activity [11] was 100% and the Activity [12] was 85%. For the same molecule, the Activity [13] was 94%, the Activity [14] was 98% and the Activity [15] was 100%. It also gave an Activity [16] of 98%, an Activity [17] of 98% and an Activity [18] of 71%. For the same molecule, the Activity [19] was 100%, the Activity [20] was 100% and the Activity [21] was 88%. For the same molecule, the Activity [22] was 88%, the Activity [23] was 90% and the Activity [24] was 86%. For the same molecule, the GI50 (U-937) was 4.8 µM and the Activity [25] was 80%.
